As usually defined, the AC50 is the concentration at which the activity in the assay is half-maximal.

Common to all, as to type: cell-based
One assay relates to TNFα. The assay can be described thus: Cytokine profiling assay in human PBMCs, TNFα detection (MSD). As to conditions: PBMC; cryopreserved human PBMCs, 24 hours at 37° C., half-maximal effect on normalized percent activation; read-out: TNFa AC50. An excerpt: (§1) Cryopreserved human PBMCs isolated from healthy donors were purchased from StemCell Technologies (Vancouver, Canada). Cell culture medium used was RPMI with L-Glutamine (Mediatech, Manassas, Va.) supplemented with 10% fetal bovine serum (Hyclone, GE Healthcare, Logan, Utah) and Penicillin-Streptomycin (Mediatech). Human TNFα, IL12p40, and IFNα2a 384-well Assay capture plates, standards, buffers and processing reagents were obtained from MesoScale Discovery Technologies (MSD; Rockville, Md.).
(§2) Cryopreserved human PBMCs (1×10e8 cells/ml) were thawed at 37° C. and resuspended in 25 mL warm cell culture medium. The cells were pelleted at 200×g (Beckman Avanti J-E) for 5 min and resuspended in 20 mL of fresh culture media. Cells were counted using a Cellometer (Nexcelcom Bioscience), adjusted to 2×10e6 cells, and incubated for 2 hours in an incubator set at 37° C., 5% CO2 to recover from cryopreservation. Compounds were serially diluted in DMSO at half-log steps to generate a 10-point dose range. Using a Bravo pipette equipped with a 384 well head (Agilent), 0.4 μL of compound was transferred to each well of a 384 well black, clear bottom plate (Greiner Bio-One, Germany) containing 30 μL of cell culture medium. Recovered PBMCs were then dispensed into the assay plate at 50 μL per well (100 k cells/well) using the MicroFlow multichannel dispenser (Biotek). Final DMSO concentration was 0.5%. DMSO was used as the negative control. The plates were incubated for 24 hours at 37° C. PBMCs in the assay plate were pelleted by centrifugation (Beckman Avanti J-E) at 200×g for 5 min.
(§3) Using a Biomek FX 384 well pipetting station (Beckman), conditioned culture medium (CCM) from the assay plate was transferred to MSD capture plates customized for each cytokine. For IFNα and IL12-p40 detection, […], of CCM were added directly to each capture plate, respectively. For TNFα detection, CCM was diluted 1:9 in fresh culture medium, and […], of diluted CCM was used. Serially diluted calibration standards for each cytokine were used to generate standard curves and establish assay linearity. The plates were sealed and incubated overnight at 4° C. in a plate shaker (Titer Plate) set at 200 rpm. On the following day, antibodies specific for each cytokine were diluted 1:50 in MSD Diluent 100 antibody dilution buffer. Diluted antibodies were added to corresponding capture plates at 10 μL/well, and incubated at RT for 1-2 hrs in the shaker. The plates were washed with PBST buffer (3×, 60 μl/well) using a Biotek Multiflow plate washer. MSD Read Buffer diluted to 2× in deionized water and 35 μL/well was added via Biomek FX instrument. The plates were read immediately in a MSD6000 reader. Data were normalized to positive and negative controls in each assay plate. AC50 values represent compound concentrations at half-maximal effect based on normalized percent activation and calculated by non-linear regression using Pipeline Pilot software (Accelrys, San Diego, Calif.).

Another assay deals with IL12p40. The assay can be described thus: Cytokine profiling assay in human PBMCs, IL12p40 detection (MSD). To be noted: PBMC; cryopreserved human PBMCs, 24 hours at 37° C., half-maximal effect on normalized percent activation.
Text: as §1, §2, §3

In a further assay the test system is IFNα. The assay can be described thus: Cytokine profiling assay in human PBMCs, IFNα detection (MSD). To be noted: PBMC; cryopreserved human PBMCs, 24 hours at 37° C., half-maximal effect on normalized percent activation; read-out: IFNa AC50.
Text: as §1, §2, §3

A value given as a limit tells only on which side of the number the result lay.

For the molecule `CCCC[C@H](CNC(C)=O)Nc1nc(N)nc2ccccc12` [Example 10, (R)—N-(2-((2-aminoquinazolin-4-yl)amino)hexyl)acetamide], the concentration at half-maximal activity (AC50) was 1670 nM in the assay on TNFα, 1320 nM in the assay on IL12p40 and above 50000 nM in the assay on IFNα.

As for `CCCC[C@](C)(CNC(C)=O)Nc1nc(N)nc2c1CCN(C(C)=O)C2` [Example 8, (R)—N-(2-((7-acetyl-2-amino-5,6,7,8-tetrahydropyrido[3,4-d]pyrimidin-4-yl)amino)-2-methylhexyl)acetamide], the AC50 is 4610 nM in the assay on TNFα, 3630 nM in the assay with IL12p40 and above 50000 nM in the assay with IFNα.

Regarding `CCCC[C@](C)(CNC(C)=O)Nc1nc(N)nc2ccccc12` [Example 1, (R)—N-(2-((2-aminoquinazolin-4-yl)amino)-2-methylhexyl)acetamide], the AC50 in the assay with TNFα is 63 nM; with IL12p40 it was 52.2 nM; in the assay on IFNα, above 50000 nM.

Take `CCCC[C@](C)(CNC(C)=O)Nc1nc(N)nc2ccsc12` [Example 9]: the AC50 is 1100 nM with TNFα, 855 nM in the assay on IL12p40 and above 50000 nM in the assay with IFNα.

Regarding `CCCC[C@](C)(CNC(C)=O)Nc1nc(N)nc2c1CN(C(C)=O)CC2` [Example 7, (R)—N-(2-((6-acetyl-2-amino-5,6,7,8-tetrahydropyrido[4,3-d]pyrimidin-4-yl)amino)-2-methylhexyl)acetamide], the concentration at half-maximal activity (AC50) in the assay on TNFα was 2500 nM; in the assay with IL12p40 it was 2320 nM; with IFNα, above 50000 nM.

With `CCCC[C@](C)(CNC(C)=O)Nc1nc(N)nc2cc(F)c(F)cc12` [Example 3, (R)—N-(2-((2-amino-6,7-difluoroquinazolin-4-yl)amino)-2-methylhexyl)acetamide], the AC50 with TNFα was 812 nM; with IL12p40, 703 nM; with IFNα it was above 50000 nM.

On to `CCCC[C@](C)(CNC(C)=O)Nc1nc(N)nc2nccnc12` [Example 14, (R)—N-(2-((2-aminopteridin-4-yl)amino)-2-methylhexyl)acetamide], for which the figures for the concentration at half-maximal activity (AC50) with TNFα, in the assay with IL12p40 and in the assay with IFNα were 1910 nM, 1900 nM and above 50000 nM, respectively.

Consider `CCCC[C@](C)(CNC(C)=O)Nc1nc(N)nc2ncccc12` [Example 5, (R)—N-(2-((2-aminopyrido[2,3-d]pyrimidin-4-yl)amino)-2-methylhexyl)acetamide], for which the AC50 with TNFα is 543 nM; with IL12p40 it was 364 nM; in the assay on IFNα it was above 50000 nM.

Take `CCCC[C@](C)(CNC(C)=O)Nc1nc(N)nc2cnccc12` [Example 4, (R)—N-(2-((2-aminopyrido[3,4-d]pyrimidin-4-yl)amino)-2-methylhexyl)acetamide]: the AC50 with TNFα is 110 nM; in the assay on IL12p40, 132 nM; with IFNα, above 50000 nM.

As to `CCCC[C@H](CNC(C)=O)Nc1nc(N)nc2cc(F)ccc12` [Example 11, (R)—N-(2-((2-amino-7-fluoroquinazolin-4-yl)amino)hexyl)acetamide], the AC50 in the assay on TNFα is 561 nM; in the assay with IL12p40 it was 433 nM; with IFNα, above 50000 nM.

Turning to `CCCC[C@](C)(CNC(C)=O)Nc1nc(N)nc2c1CCCC2` [Example 6, (R)—N-(2-((2-amino-5,6,7,8-tetrahydroquinazolin-4-yl)amino)-2-methylhexyl)acetamide], the AC50 in the assay with TNFα was 10200 nM; with IL12p40, 9580 nM; with IFNα, above 50000 nM.

For `CCCC[C@H](CNC(C)=O)Nc1nc(N)nc2ccsc12` [Example 13], the AC50 is 9520 nM in the assay with TNFα, 8290 nM with IL12p40 and above 50000 nM in the assay on IFNα.

As for `CCCC[C@H](CNC(C)=O)Nc1nc(N)nc2cc(F)c(F)cc12` [Example 12, (R)—N-(2-((2-amino-6,7-difluoroquinazolin-4-yl)amino)hexyl)acetamide], the concentration at half-maximal activity (AC50) was 10200 nM with TNFα, 12000 nM in the assay on IL12p40 and above 50000 nM in the assay with IFNα.

For `CCCC[C@](C)(CNC(C)=O)Nc1nc(N)nc2cc(F)ccc12` [Example 2, (R)—N-(2-((2-amino-7-fluoroquinazolin-4-yl)amino)-2-methylhexyl)acetamide], the AC50 in the assay on TNFα was 40.9 nM; with IL12p40, 8.83 nM; in the assay with IFNα it was above 50000 nM.
